ChEMBL document CHEMBL5096229, “A 1,2,3-Triazole Derivative of Quinazoline Exhibits Antitumor Activity by Tethering RNF168 to SQSTM1/P62” (J Med Chem, 2022)
Active and inactive are the calls of the source. No cut-off for these calls is given here.

Legend:
[1] = Toxicity in BALB/c mouse assessed as diarrhea 50 mg/kg, ip after 7 days; format: organism-based; settings: in vivo, 168 h, time 7 day
Sequestosome-1 = Sequestosome-1 (Homo sapiens, UniProt Q13501); assay: Binding affinity to P62 (unknown origin) by MST assay
Sequence of Sequestosome-1 (Q13501 whole entry): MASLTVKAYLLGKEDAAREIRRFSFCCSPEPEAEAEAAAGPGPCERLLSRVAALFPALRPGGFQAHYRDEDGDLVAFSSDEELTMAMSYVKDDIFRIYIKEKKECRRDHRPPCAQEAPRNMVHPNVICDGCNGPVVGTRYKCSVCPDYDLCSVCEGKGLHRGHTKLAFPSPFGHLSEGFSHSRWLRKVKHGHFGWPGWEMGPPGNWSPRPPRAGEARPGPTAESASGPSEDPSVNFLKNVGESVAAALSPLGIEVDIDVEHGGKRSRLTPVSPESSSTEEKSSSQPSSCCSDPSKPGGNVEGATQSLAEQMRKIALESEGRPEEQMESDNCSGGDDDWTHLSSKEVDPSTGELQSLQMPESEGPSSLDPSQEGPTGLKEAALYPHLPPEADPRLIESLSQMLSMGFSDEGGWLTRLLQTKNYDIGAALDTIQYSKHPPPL

[2] = Toxicity in BALB/c nude mouse assessed as diarrhea 12.5 mg/kg, ip after 7 days; format: organism-based; settings: in vivo, 168 h, time 7 day
[3] = target: T1, Glucocorticoid receptor (Homo sapiens) (UniProt P04150); assay: Inhibition of GR (unknown origin) at 10 uM
T1 sequence (whole entry): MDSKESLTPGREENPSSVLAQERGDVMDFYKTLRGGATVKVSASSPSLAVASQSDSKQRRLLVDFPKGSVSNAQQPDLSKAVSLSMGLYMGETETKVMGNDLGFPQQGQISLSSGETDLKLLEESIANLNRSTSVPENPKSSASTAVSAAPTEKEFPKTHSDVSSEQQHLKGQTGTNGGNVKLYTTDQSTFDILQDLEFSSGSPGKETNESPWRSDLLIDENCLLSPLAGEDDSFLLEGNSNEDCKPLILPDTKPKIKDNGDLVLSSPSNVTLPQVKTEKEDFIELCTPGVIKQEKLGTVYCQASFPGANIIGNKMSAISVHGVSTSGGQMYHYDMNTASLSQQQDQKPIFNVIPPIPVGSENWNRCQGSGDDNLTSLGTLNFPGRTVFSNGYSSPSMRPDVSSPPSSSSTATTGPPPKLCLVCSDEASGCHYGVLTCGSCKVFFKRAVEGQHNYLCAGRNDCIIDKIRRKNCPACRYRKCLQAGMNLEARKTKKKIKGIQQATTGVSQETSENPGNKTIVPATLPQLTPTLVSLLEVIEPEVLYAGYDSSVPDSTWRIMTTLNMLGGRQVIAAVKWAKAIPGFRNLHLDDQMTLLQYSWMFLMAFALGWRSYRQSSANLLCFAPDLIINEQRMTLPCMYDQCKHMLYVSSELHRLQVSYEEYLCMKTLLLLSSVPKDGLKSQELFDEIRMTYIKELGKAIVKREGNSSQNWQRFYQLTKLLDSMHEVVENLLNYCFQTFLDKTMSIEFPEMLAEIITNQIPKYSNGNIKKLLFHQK

[4] = Toxicity in BALB/c mouse assessed as maximum tolerable dose; settings: in vivo
[5] = Toxicity in BALB/c mouse assessed as diarrhea at 100 mg/kg, ip after 7 days; format: organism-based; settings: in vivo, 168 h, time 7 day
U2OS [6] = assay: Induction of x-ray sensitivity in human U2OS cells; format: functional, cell-based
HCT-116 [7] = assay: Antitumor activity against human HCT-116 cells xenografted with BALB/c nude mouse assessed as tumor growth inhibition at 5 to 10 mg/kg, ip administered every 3 days upto 22 days by H and E staining based assay; format: functional, organism-based; settings: dose 5-10 mg/kg, time <= 22.0 day
Bacteria [8] = assay: Induction of bacteria His-tagged P62 to GST-tagged RNF168 protein-protein interaction by co-immunoprecipitation assay
U2OS [9] = assay: Inhibition of homologous recombinant repair in human U2OS cells assessed as I-SceI induced double […] break pretreated with I-SceI for 36 hrs followed by compound addition and measured after 12 hrs; format: functional, cell-based; settings: dose 0.625-2.5 µM, DDE = dose-dependent effect
[10] = Clearance in BALB/c mouse at 5 mg/kg; format: ADME, organism-based; settings: in vivo
HCT-116 [11] = assay: Induction of cell cycle arrest in human HCT-116 cells assessed as accumulation at S phase at 1 uM after 24 hrs by propidium iodide-staining based flow cytometry (reference value: 17.17 +/- 0.18%); format: functional
HCT-116 [12] = assay: Induction of cell cycle arrest in human HCT-116 cells assessed as accumulation at G2/M phase at 1 uM after 24 hrs by propidium iodide-staining based flow cytometry (reference value: 23.25 +/- 1.38%); format: functional
[13] = Induction of P62 to RNF168 protein-protein interaction (unknown origin) by MST assay; parameters: species or system Homo sapiens
[14] = Toxicity in BALB/c nude mouse assessed as animal death 12.5 mg/kg, ip after 7 days; format: organism-based; settings: in vivo, 168 h, time 7 day
[15] = Toxicity in BALB/c nude mouse assessed as animal death 50 mg/kg, ip after 7 days; format: organism-based; settings: in vivo, 168 h, time 7 day
[16] = Half life in BALB/c mouse at 20 mg/kg; format: ADME, organism-based; settings: in vivo
HCT-116 [17] = assay: Induction of x-ray sensitivity in human HCT-116 cells; format: functional, cell-based
[18] = Toxicity in BALB/c nude mouse assessed as diarrhea 25 mg/kg, ip after 7 days; format: organism-based; settings: in vivo, 168 h, time 7 day
HCT-116 [19] = assay: Antitumor activity against human HCT-116 cells xenografted with BALB/c nude mouse assessed as increase in cleaved PARP1 positive tumor cells at 5 to 10 mg/kg, ip administered every 3 days upto 22 days by immuno histochemistry assay; format: functional, organism-based; settings: dose 5-10 mg/kg, time <= 22.0 day
HCT-116 [20] = assay: Induction of cell cycle arrest in human HCT-116 cells assessed as accumulation at S phase at 2 uM after 24 hrs by propidium iodide-staining based flow cytometry (reference value: 17.17 +/- 0.18%); format: functional
HCT-116 [21] = assay: Induction of cell cycle arrest in human HCT-116 cells assessed as accumulation at G2/M phase at 5 uM after 24 hrs by propidium iodide-staining based flow cytometry (reference value: 23.25 +/- 1.38%); format: functional
U2OS [22] = assay: Cytotoxicity against human U2OS cells assessed as reduction in cell viability incubated for 72 hrs by MTS assay; format: functional, cell-based
[23] = Toxicity in BALB/c mouse assessed as animal death at 100 mg/kg, ip after 7 days; format: organism-based; settings: in vivo, 168 h, time 7 day
[24] = Half life in BALB/c mouse at 5 mg/kg; format: ADME, organism-based; settings: in vivo
Bacteria [25] = assay: Induction of bacteria His-tagged P62 to GST-tagged RNF168 protein-protein interaction assessed as decrease in H2A ubiquitination level
[26] = Toxicity in BALB/c nude mouse assessed as changes in body weight at 5 to 10 mg/kg, ip administered every 3 days upto 22 days; format: organism-based; settings: in vivo, 528 h, dose 5-10 mg/kg, time < 22 day
[27] = Toxicity in BALB/c mouse assessed as diarrhea at less than 50 mg/kg, ip after 7 days; format: organism-based; settings: in vivo, 168 h, time 7 day
HCT-116 [28] = assay: Induction of cell cycle arrest in human HCT-116 cells assessed as accumulation at G0/G1 phase at 1 uM after 24 hrs by propidium iodide-staining based flow cytometry (reference value: 58.01 +/- 1.77%); format: functional
HCT-116 [29] = assay: Induction of P62 to RNF168 protein-protein interaction in human HCT-116 cells lysates by co-immunoprecipitation assay; format: subcellular
[30] = Toxicity in BALB/c nude mouse assessed as maximum tolerable dose; settings: in vivo
MGC-803 = assay: Cytotoxicity against human MGC-803 cells assessed as reduction in cell viability incubated for 72 hrs by MTS assay; format: functional, cell-based; settings: MGC-803, 72 h

COc1cc(-n2cc(-c3ccc4nc(N)nc(N)c4c3)nn2)cc(OC)c1OC
Activity [1]: Toxic
Kd (Sequestosome-1): 1.49 µM
Activity [2]: Toxic
inhibition [3]: Active
MTD [4]: 50 mg/kg
Activity [5]: Toxic
Activity (U2OS [6]): Active
Activity (HCT-116 [7]): Active
Activity (Bacteria [8]): Active
inhibition (U2OS [9]): Dde
clearance [10]: 19.6 L/h/kg
Activity (HCT-116 [11]): 24.42%
Activity (HCT-116 [12]): 29.33%
Kd [13]: 0.89 µM
Activity [14]: Toxic
Activity [15]: Toxic
half-life [16]: 22.1 h
Activity (HCT-116 [17]): Active
Activity [18]: Toxic
Activity (HCT-116 [19]): Active
Activity (HCT-116 [20]): 21.51%
Activity (HCT-116 [21]): 35.34%
IC50 (U2OS [22]): 3.64 µM
Activity [23]: Toxic
half-life [24]: 16.2 h
Activity (Bacteria [25]): Active
Activity [26]: Non-Toxic
Activity [27]: Non-Toxic
Activity (HCT-116 [28]): 53%
Activity (HCT-116 [29]): Active
MTD [30]: 12.5 mg/kg
IC50 (MGC-803): 1.88 µM
